Results on five compounds are retold here after patent US8518939B2, “6-pyrimidinyl-pyrimid-4-one derivative” (Mitsubishi Tanabe Pharma Corporation, priority 2007, dated 2013).

In one data set the target is CYP2D6 (Homo sapiens, UniProt P10635). The experiment in a line: Inhibitory activity on CYP2D6, human recombinant CYPs. It is filed as in vitro ADME. Conditions: human recombinant CYP2D6, substrate ethylene glycol ester of luciferin-6'-methyl ether; read-out: CYP 2D6 inhibition, IC50 value. How it is done: The purpose of this pharmacokinetic study was to investigate the inhibitory effects of test compounds on the specific metabolic activity of human CYP isozymes using human recombinant CYPs in vitro. […] The specific substrate and positive control is ethylene glycol ester of luciferin-6′-methyl ether and quinidine, respectively. The substrate for the CYP isozyme was incubated with human recombinant CYPs in the presence or absence of the test compounds and the metabolic activity of the CYP isozyme was determined. The reaction mixture was preincubated at 37° C. without NADPH generating system. The reaction was started by the addition of NADPH generating system, and then terminated by the addition of acetonitrile. The activities of the human CYP isozymes were measured by fluorescence signal (CYP2D6) of reaction mixture.
Sequence of CYP2D6 (P10635 whole entry): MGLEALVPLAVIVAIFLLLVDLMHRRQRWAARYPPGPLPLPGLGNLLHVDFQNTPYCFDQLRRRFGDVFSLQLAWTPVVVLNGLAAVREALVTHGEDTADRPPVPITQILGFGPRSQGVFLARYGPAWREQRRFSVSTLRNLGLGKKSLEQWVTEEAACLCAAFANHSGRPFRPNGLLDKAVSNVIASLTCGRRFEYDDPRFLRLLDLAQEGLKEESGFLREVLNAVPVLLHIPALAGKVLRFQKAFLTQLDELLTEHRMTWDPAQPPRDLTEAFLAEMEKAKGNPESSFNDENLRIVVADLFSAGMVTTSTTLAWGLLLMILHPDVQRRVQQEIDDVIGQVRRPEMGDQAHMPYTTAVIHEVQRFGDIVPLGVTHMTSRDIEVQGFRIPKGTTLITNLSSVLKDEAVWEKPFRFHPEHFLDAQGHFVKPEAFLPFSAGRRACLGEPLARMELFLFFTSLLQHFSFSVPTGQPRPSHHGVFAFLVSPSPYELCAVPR

The subject of the next data set is scopolamine-treated mice. The data set is described as follows: Object recognition test, 3 h inter-trial interval, scopolamine-induced episodic memory deficit.

As a reminder, the IC50 is the concentration at which inhibition is half-maximal. One may read the melting point as the temperature of the solid-liquid transition.

`Cn1c(N2CCOC(c3nc(-c4ccccc4)no3)C2)nc(-c2ccncn2)cc1=O` (stereo not drawn) [Compound 1, 1-Methyl-2-[2-(3-phenyl-[1,2,4]oxadiazol-5-yl)-morpholin-4-yl]-1H-[4,4′]bipyrimidinyl-6-one]: on CYP2D6, the IC50 is > 50 µM.
The same measure, in the same setting: with `Cn1c(N2CCOC(c3noc(-c4ccccc4)n3)C2)nc(-c2ccncn2)cc1=O` (stereo not drawn) [Compound 2, 1-Methyl-2-[2-(5-phenyl-[1,2,4]oxadiazol-3-yl)-morpholin-4-yl]-1H-[4,4′]bipyrimidinyl-6-one] the figure was > 25 µM.
Turning to `Cn1ccnc1-c1ccc(C2CN(c3nc(-c4ccncn4)cc(=O)n3C)CCO2)cc1` (stereo not drawn) [Compound 4, 1-Methyl-2-{2-[4-(1-methyl-1H-imidazol-2-yl)-phenyl]-morpholin-4-yl}-1H-[4,4′]bipyrimidinyl-6-one], the melting point is 179.8 °C (dec.). Also, the IC50 on CYP2D6 was > 50 µM.
`Cc1nc(-c2ccc([C@H]3CN(c4nc(-c5ccncn5)cc(=O)n4C)CCO3)cc2)no1` [Compound of the present invention]: the melting point was determined as 191 °C. The concentration for half-maximal inhibition (IC50) on CYP2D6 was > 50 µM. Besides, the “effect on episodic memory deficits induced by scopolamine” value in the data set on scopolamine-treated mice (3 mg/kg oral) was “ineffective”. Also, in the data set on scopolamine-treated mice (scopolamine-treated mice), the “MED, prevention of episodic memory deficits” value was determined as 10 mg/kg.
Turning to `CN1[C@@H]2C[C@@H](OC(=O)[C@H](CO)c3ccccc3)C[C@H]1[C@@H]1O[C@@H]12` [scopolamine, reference compound], in the data set on scopolamine-treated mice (scopolamine 1 mg/kg 30 minutes before acquisition, 0 mg/kg test compound, 3 h interval), the “recognition index (RI)” value was 49.9%.
